# Patent publication US11326165B1, “Methods and compositions for modulating splicing” (SKYHAWK THERAPEUTICS, INC., priority 2017, dated 2022)
# Key:
# [1] = test system: A375 xenografts; assay: A375 xenografts in nude mice, tumor growth inhibition; type: in vivo; conditions: A-375 xenograft (FIGS. 21A-B)
# Description: (§1) Studies were performed to assess the effects of in vivo SMSM treatment on glioblastoma, breast, pancreatic, prostate, melanoma, lymphoma and Ewing sarcoma tumors. Studies were also performed to assess the effects of in vivo SMSM treatment on mRNA levels. Immunocompromised nude mice with pre-existing glioblastoma, breast, pancreatic, prostate, melanoma, lymphoma and Ewing sarcoma xenografts were treated with vehicle or SMSMs. Tumor tissues from subcutaneous xenografts were broken into a powder using a BioPulverizer (Biospec Products, Inc.). After SMSM treatment, mRNA was isolated from the xenografts and was analyzed by qRT-PCR.
# (§2) Tumor size was measured 2 times per week in two dimensions using a caliper. Studies were terminated when the tumor size in the vehicle treated group reached 2,000 mm^3. Each mouse was bled at 2 hrs after the last dose and at least 50 μl of plasma was collected from each mouse. All of the collected plasma samples and retainer dosing solutions for each dose level were used for bioanalytical measurements. All tumors were also collected and weighed. One necrosis-free tumor fragment of approximately 50 mg was taken from each tumor and flash-frozen for RNA isolation. The remaining tumor was flash frozen for PK analysis.
# (§3) The effects of in vivo SMSM treatments on pre-existing subcutaneous glioblastoma, breast, pancreatic, prostate, melanoma, lymphoma and Ewing sarcoma xenografts were assessed. For these in vivo experiments, 1×10^6Raji, A375, A673, MDA-MB-231, BxPC-3, PC-3 or U87 (cells re-suspended in 100 μl PBS were subcutaneously injected into the flanks of nude mice. When the tumor reached approximately 100 mm^3 (volume=(¾)(π)(length/2)(width/2)^2), the treatments indicated in the tables below were initiated.
# [2] = test system: A673 xenografts; assay: A673 xenografts in nude mice, tumor growth inhibition; type: in vivo; conditions: A673 xenograft (FIGS. 20A-B)
# Description: Dose range and time course studies comparing anti-neoplastic effects of SMSM−167 and SMSM−151 against vehicle were conducted.
# Female NCrNu mice were used. Age range of enrolment was 7-10 weeks. A total of 75 animals were for the studies.
# The A673 tumor cell line was maintained in vitro as a monolayer culture. […] The cells growing in an exponential growth phase were harvested and counted for tumor inoculation.
# Each mouse were inoculated into a right flank with the single cell suspension of 95% viable tumor cells (5×10^6 cells/mouse) in serum-free RPMI 1640 Media for tumor development. Treatments were administered when mean tumor size reached approximately 75 mm^3.
# Before commencement of treatment, all animals were weighed and assigned to treatment groups using a randomization procedure. Mice were randomized into groups based upon their tumor sizes to ensure that each group had approximately the same mean tumor size and range of tumor size.
# After inoculation, the animals were checked daily for morbidity and mortality. At the time of routine monitoring, the animals were checked for any effects of tumor growth on normal behavior such as mobility, food and water consumption, body weight gain/loss, eye/hair matting and any other abnormal effects. Deaths and observed clinical signs were recorded.
# Body weight were measured prior to tumor inoculation and prior to the treatment administration and then daily. Tumor size were measured 2-3 times per week in two dimensions using a caliper, and the volume were expressed in mm^3 using the formula: V=0.5×a×b^2 where a and b are the long and short diameters of the tumor, respectively.
# as §2, with “Studies” for “Tumor size was measured 2 times per week in two dimensions using a caliper. Studies”, “plasma were” for “plasma was”
# as §1, §2
# as §3, with “initiated. […]” for “initiated.”
# [3] = test system: A673 cells; assay: Cell viability and proliferation, A673 cells (crystal violet); type: cell-based; conditions: cell proliferation IC50 in NHDF cells over A673 cells, 72 h
# Description: Small molecule splicing modulators were tested in a dose-response assay using A673 cells and NHDF cells.
# A673 cells or NHDF cells were first plated in 96-well plastic tissue culture plates (10,000 cells per well). The cells were treated with vehicle alone (DMSO), or increasing concentrations of SMSM compounds for 72 h. Following treatment, cell proliferation was determined using a crystal violet assay. The relative cell proliferation at each concentration was determined.
# [4] = Maximum tolerable dose study (survival, body weight); type: in vivo; conditions: mice
# Description: Survival of mice after administration of SMSMs after 10 or 11 days was assessed.
# Tolerance of the drug treatments was determined by measuring the weight of the mice during the period of drug administration. Body weight was measured prior to tumor inoculation and prior to the treatment administration and then daily. The changes in the final weight of the mice for the SMSM treatments were determined.
compound,measurement,setting,value
"CN(c1ccc(-c2ccc(-c3cn[nH]c3)cc2O)nn1)[C@H]1C[C@]2(C)CC[C@](C)(C1)N2 [compound 151, 2-(6-(((1R,3s,5S)-1,5-dimethyl-8-azabicyclo[3.2.1]octan-3-yl)(methyl)ami-no)pyridazin-3-yl)-5-(1H-pyrazol-4-yl)phenol]",Tumor Growth Inhibition (TGI) (%),"[1]; 3 mg/kg i.p. QD *21 days, D4",15.21%
same,Tumor Growth Inhibition (TGI) (%),"[1]; 3 mg/kg i.p. QD *21 days, D7",18.86%
same,Tumor Growth Inhibition (TGI) (%),"[1]; 3 mg/kg i.p. QD *21 days, D11",27.48%
same,Tumor Growth Inhibition (TGI) (%),"[1]; 3 mg/kg i.p. QD *21 days, D14",41.30%
same,Tumor Growth Inhibition (TGI) (%),"[1]; 3 mg/kg i.p. QD *21 days, D18",62.06%
same,Tumor Growth Inhibition (TGI) (%),"[1]; 3 mg/kg i.p. QD *21 days, D21",55.77%
same,Tumor Growth Inhibition (TGI) (%),"[1]; 10 mg/kg p.o. BID *21 days, D4",22.49%
same,Tumor Growth Inhibition (TGI) (%),"[1]; 10 mg/kg p.o. BID *21 days, D7",28.98%
same,Tumor Growth Inhibition (TGI) (%),"[1]; 10 mg/kg p.o. BID *21 days, D11",48.28%
same,Tumor Growth Inhibition (TGI) (%),"[1]; 10 mg/kg p.o. BID *21 days, D14",49.06%
same,Tumor Growth Inhibition (TGI) (%),"[1]; 10 mg/kg p.o. BID *21 days, D18",58.41%
same,Tumor Growth Inhibition (TGI) (%),"[1]; 10 mg/kg p.o. BID *21 days, D21",50.32%
same,Tumor Growth Inhibition (TGI) (%),"[1]; SMSM-151 group 1.5 mg/kg i.p. BID *21 days, D4",21.81%
same,Tumor Growth Inhibition (TGI) (%),"[1]; SMSM-151 group 1.5 mg/kg i.p. BID *21 days, D7",13.08%
same,Tumor Growth Inhibition (TGI) (%),"[1]; SMSM-151 group 1.5 mg/kg i.p. BID *21 days, D11",24.17%
same,Tumor Growth Inhibition (TGI) (%),"[1]; SMSM-151 group 1.5 mg/kg i.p. BID *21 days, D14",34.70%
same,Tumor Growth Inhibition (TGI) (%),"[1]; SMSM-151 group 1.5 mg/kg i.p. BID *21 days, D18",39.27%
same,Tumor Growth Inhibition (TGI) (%),"[1]; SMSM-151 group 1.5 mg/kg i.p. BID *21 days, D21",36.89%
same,Tumor Growth Inhibition (TGI) (%),"[2]; 10 mg/kg BID p.o., Day 3",28.03%
same,Tumor Growth Inhibition (TGI) (%),"[2]; 10 mg/kg BID p.o., Day 6",34.29%
same,Tumor Growth Inhibition (TGI) (%),"[2]; 10 mg/kg BID p.o., Day 10",22.09%
same,Tumor Growth Inhibition (TGI) (%),"[2]; 10 mg/kg BID p.o., Day 13",30.12%
same,Tumor Growth Inhibition (TGI) (%),"[2]; 20 mg/kg BID p.o., Day 3",37.61%
same,Tumor Growth Inhibition (TGI) (%),"[2]; 20 mg/kg BID p.o., Day 6",45.97%
same,Tumor Growth Inhibition (TGI) (%),"[2]; 20 mg/kg BID p.o., Day 10",55.24%
same,Tumor Growth Inhibition (TGI) (%),"[2]; 20 mg/kg BID p.o., Day 13",71.29%
same,Tumor Growth Inhibition (TGI) (%),"[2]; 30 mg/kg QD p.o., Day 3",23.90%
same,Tumor Growth Inhibition (TGI) (%),"[2]; 30 mg/kg QD p.o., Day 6",34.28%
same,Tumor Growth Inhibition (TGI) (%),"[2]; 30 mg/kg QD p.o., Day 10",17.11%
same,Tumor Growth Inhibition (TGI) (%),"[2]; 30 mg/kg QD p.o., Day 13",23.52%
same,Ratio NHDF/A673 IC50,[3],>350
same,Outcome,"[4]; IP, 1 mg/kg, QDx11",All survived
same,Outcome,"[4]; PO, 10 mg/kg, BIDx11",All survived
same,Outcome,"[4]; PO, 10 mg/kg, QDx11",All survived
